Assay results taken from ChEMBL document CHEMBL5390298, “Nanomolar Benzothiazole-Based Inhibitors of 17β-HSD10 with Cellular Bioactivity” (ACS Med Chem Lett, 2023).

Key:
[1] = test system: HEK293; test: Cytotoxicity against HEK293 cells assessed as cell damage at 50 uM incubated for 48 hrs by fluorometric method; type: toxicity, cell-based; conditions: human, hek293, 48 h
[2] = target: T1, 3-hydroxyacyl-CoA dehydrogenase type-2 (Homo sapiens, UniProt Q99714); test: Inhibition of recombinant 17beta-HSD10 (unknown origin) using ALLOP as substrate and NAD+ as cofactor preincubated for 5 mins followed by substrate addition and measured after 20 mins by fluorometric assay
T1 sequence (Q99714 whole entry): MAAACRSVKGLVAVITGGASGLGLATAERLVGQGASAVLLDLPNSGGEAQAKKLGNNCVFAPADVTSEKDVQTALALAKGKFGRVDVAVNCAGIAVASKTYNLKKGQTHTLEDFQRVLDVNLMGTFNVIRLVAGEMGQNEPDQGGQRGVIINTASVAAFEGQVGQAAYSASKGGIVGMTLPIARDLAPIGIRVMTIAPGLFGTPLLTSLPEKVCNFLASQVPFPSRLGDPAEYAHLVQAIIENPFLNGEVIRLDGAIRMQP

[3] = target: T1, 3-hydroxyacyl-CoA dehydrogenase type-2; test: Mixed type inhibition of recombinant 17beta-HSD10 (unknown origin) using E2 as substrate and NAD+ as cofactor preincubated for 5 mins followed by substrate addition and measured after 20 mins by fluorometric assay
[4] = target: T1, 3-hydroxyacyl-CoA dehydrogenase type-2; test: Inhibition of recombinant 17beta-HSD10 (unknown origin) using E2 as substrate and NAD+ as cofactor preincubated for 5 mins followed by substrate addition and measured after 20 mins by fluorometric assay

| SMILES | Activity [1] | also measured |
| --- | --- | --- |
| CC(=O)Nc1ccc2nc(NCc3ccc(O)c(C(F)(F)F)c3)sc2c1 | Non-Toxic |  |
| CS(=O)(=O)Nc1ccc2nc(NC(=O)Nc3ccc(O)c(Cl)c3)sc2c1 | Non-Toxic |  |
| NS(=O)(=O)c1ccc2nc(NC(=O)Nc3ccc(O)c(Cl)c3)sc2c1 | Non-Toxic |  |
| O=C(Nc1ccc(O)c(Cl)c1)Nc1nc2cc(C(=O)O)ccc2s1 | Non-Toxic |  |
| CC(=O)Nc1ccc2nc(NCc3ccc(O)c(Cl)c3)sc2c1 | Non-Toxic |  |
| CC(=O)Nc1ccc2nc(N(CCc3ccc(O)c(Cl)c3)C(C)=O)sc2c1 | Non-Toxic |  |
| NC(=O)Nc1ccc2nc(NC(=O)Nc3ccc(O)c(Cl)c3)sc2c1 | Non-Toxic | IC50 [2]: 330 nM; IC50 [3]: 270 nM |
| O=C(Nc1ccc(O)c(Cl)c1)Nc1nc2ccc(C(=O)O)cc2s1 |  | IC50 [4]: 1810 nM |
| CC(=O)Nc1ccc2nc(NC(=O)Nc3ccc(O)c(C(F)(F)F)c3)sc2c1 | Non-Toxic |  |
| O=C(O)c1ccc2nc(NCc3ccc(O)c(Cl)c3)sc2c1 | Non-Toxic |  |
| O=C(O)c1ccc2nc(NC(=O)c3ccc(O)c(Cl)c3)sc2c1 | Non-Toxic |  |
| CC(=O)Nc1ccc2nc(NCCc3ccc(O)c(Cl)c3)sc2c1 | Non-Toxic |  |
| CC(=O)Nc1ccc2nc(NC(=O)Nc3ccc(O)c(Cl)c3)sc2c1 |  | IC50 [4]: 1150 nM |
| O=C(O)c1ccc2nc(NCCc3ccc(O)c(Cl)c3)sc2c1 | Non-Toxic |  |
| O=C(Nc1ccc(O)c(C(F)(F)F)c1)Nc1nc2ccc(C(=O)O)cc2s1 | Non-Toxic | IC50 [2]: 250 nM; IC50 [3]: 340 nM |
| O=C(Nc1ccc(O)c(Cl)c1)Nc1nc2ccc(-c3nnn[nH]3)cc2s1 | Non-Toxic | IC50 [2]: 95 nM; IC50 [3]: 410 nM |
